According to US20130131089A1, “DOSAGE FORMS OF ELINOGREL AND METHODS OF INJECTABLE ADMINISTRATION THEREOF” (Portola Phamaceuticals Inc., priority 2010, published 2013):
Values after ≈ are worked out from the molar mass of the structure shown. Like-named read-outs stand apart in the source and are kept apart here.

Assays:
[1] = Kinetic solubility in liquid formulation containing mannitol and glycine buffer; assay type: physicochemical; conditions: 4% mannitol; for Solubility (kinetic): 50 mM glycine sodium; for solubility kinetic at 1 day / solubility kinetic at 2 day / solubility kinetic at 3 day / solubility kinetic at 4 day / solubility kinetic at 5 day: IV vehicle: 50 mM glycine sodium, thermodynamic from solid; for solubility kinetic at 5 day: pH 8.8, Day 5
Protocol: Three solid state forms of Elinogrel were tested: i.e., Form B (mono potassium hemi hydrate), Form C (hemi potassium trihydrate), and the Free Acid form. Excess Elinogrel (i.e., ˜10 mg/ml when fully dissolved) was equilibrated with the IV vehicle composed of 50 mM glycine sodium and 4% mannitol at RT or refrigerated. The pH was monitored and adjusted to the target range using NaOH or HCl.

[2] = Solubility in co-solvents (propylene glycol, ethanol); assay type: physicochemical; conditions: propylene glycol/ethanol co-solvent mixture, aqueous with cosolvent or surfactant or cyclodextrin, thermodynamic from solid, 10% EtOH, no pH adjustment, 25° C.
Protocol: Excess Elinogrel potassium solids were added into ½ mL of 25% or 75% propylene glycol with 10% ethanol and the suspensions were equilibrated for 12 days at ambient temperature. Solubilities were determined by analyzing concentration of supernatants via HPLC.

[3] = Solubility in sodium sulfobutyl ether β-cyclodextrin solutions over time; assay type: physicochemical
Protocol: A set of samples in 0, 10, 20, and 40% sodium sulfobutyl ether β-cyclodextrin with no pH adjustment were equilibrated for 12 days and concentrations of supernatants at 1, 3, 6, and 12 days were determined.
The solubility results of Elinogrel potassium at various sodium sulfobutyl ether β-cyclodextrin concentrations as a function of time (without pH adjustment) are shown in Table 4. […] There is a continued decrease of solubility overtime, before it approaching plateau at each SBE-β-CD level.

physchem = conditions: thermodynamic from solid, S (solubility)
Protocol: (§1) The white to off-white wet solids were collected by centrifugation at 13,000 rpm for 5 min and supernatant removal.

[4] = pH 9.3
Protocol: as §1

[5] = tested on: Male New Zealand White rabbits; assay: Rabbit vein and tissue irritation study; assay type: in vivo; conditions: 4% mannitol, perivascular and subcutaneous, 5 days
Protocol: Male New Zealand White rabbits were utilized in this study. Rabbits received 3 injections:
Intravenous (IV): 1.0 mL in left marginal ear vein;
Perivascular: 0.5 mL near the right marginal ear vein; and
Subcutaneous (SC): 1.0 mL in the scapular region of the dorsal back.
There were four rabbits per each of the following dose groups.
Normal Saline: 0.9% sodium chloride
Vehicle: 10 mM sodium glycine, 4% mannitol, pH 9.31
Elinogrel (Na salt) at 16.7 mg/mL in 10 mM glycine, 4% mannitol, pH 9.33
Elinogrel (K salt) at 4.0 mg/mL in 50 mM glycine, 4% mannitol, pH 9.38
On day 5, tissues (ears and skin) were harvested and processed for histological examination of the injection site.

[6] = Aqueous solubility of the free acid form; assay type: physicochemical; conditions: aqueous medium, aqueous buffer; pH 1.0-7.4
[7] = Thermodynamic solubility at different pH at 37° C.; assay type: physicochemical; conditions: aqueous slurry, thermodynamic from solid
Protocol: The thermodynamic solubility of Elinogrel potassium salt and free acid in pH range of 1-10 at 37° C. was also determined. Excess Elinogrel free acid or potassium salt (start from Form B) was equilibrated with its aqueous slurries at various pH under constant agitation. Different amounts of NaOH or HCl solution were used to adjust pH. Solubility was determined after 3 days by analyzing the elinogrel concentration in supernatant of the slurry after ultracentrifugation.

[8] = pKa, logP and logD of Elinogrel; assay type: physicochemical

In the case of `CNc1cc2[nH]c(=O)n(-c3ccc(NC(=O)NS(=O)(=O)c4ccc(Cl)s4)cc3)c(=O)c2cc1F` [Elinogrel potassium (Form B)], the “Solubility (kinetic)” value ([1]; RT, pH 8.8, Day 1, listed as Elinogrel K salt-Form B, potassium salt) is reported as 5930 µg/mL, the “Solubility (kinetic)” value ([1]; RT, pH 8.8, Day 2, listed as Elinogrel K salt-Form B, potassium salt) is reported as 5200 µg/mL and the “Solubility (kinetic)” value ([1]; RT, pH 8.8, Day 3, listed as Elinogrel K salt-Form B, potassium salt) is reported as 1750 µg/mL. The “Solubility (kinetic)” value ([1]; RT, pH 8.8, Day 4, listed as Elinogrel K salt-Form B, potassium salt) was 2080 µg/mL, the “Solubility (kinetic)” value ([1]; RT, pH 8.8, Day 5, listed as Elinogrel K salt-Form B, potassium salt) was 1370 µg/mL and the “Solubility (kinetic)” value ([1]; RT, pH 9, Day 1, listed as Elinogrel K salt-Form B, potassium salt) was 5890 µg/mL. For the same compound, the “Solubility (kinetic)” value ([1]; RT, pH 9, Day 2, listed as Elinogrel K salt-Form B, potassium salt) was 3560 µg/mL, the “Solubility (kinetic)” value ([1]; RT, pH 9, Day 3, listed as Elinogrel K salt-Form B, potassium salt) was 1780 µg/mL and the “Solubility (kinetic)” value ([1]; RT, pH 9, Day 4, listed as Elinogrel K salt-Form B, potassium salt) was 1950 µg/mL. The “Solubility (kinetic)” value ([1]; RT, pH 9, Day 5, listed as Elinogrel K salt-Form B, potassium salt) was 1290 µg/mL, the solubility kinetic at 1 day ([1]; 5 °C, pH 8.8, aqueous buffer, 5° C., pH 8.8, Day 1) was 5480 µg/mL and the solubility kinetic at 2 day ([1]; 5 °C, pH 8.8, aqueous buffer, 5° C., pH 8.8, Day 2) was 4020 µg/mL. For the same compound, the solubility kinetic at 3 day ([1]; 5 °C, pH 8.8, aqueous buffer, 5° C., pH 8.8, Day 3) was 1580 µg/mL, the solubility kinetic at 4 day ([1]; 5 °C, pH 8.8, aqueous buffer, 5° C., pH 8.8, Day 4) was 1580 µg/mL and the solubility kinetic at 5 day ([1]; 5 °C, pH 8.8, aqueous buffer, 5° C.) was 1110 µg/mL. The solubility at 12 d ([2]; 25% PG, pH 7.0, read-out: S (solubility)) was 8000 µg/mL and the solubility at 12 d ([2]; 75% PG, pH 7.3, read-out: S (solubility)) was 21000 µg/mL.
With `CNc1cc2[nH]c(=O)n(-c3ccc(NC(=O)NS(=O)(=O)c4ccc(Cl)s4)cc3)c(=O)c2cc1F` [Elinogrel potassium (Form C)] the “Solubility (kinetic)” value ([1]; RT, pH 8.8, Day 1, listed as Elinogrel K-Form C, potassium salt) was 2360 µg/mL, the “Solubility (kinetic)” value ([1]; RT, pH 8.8, Day 2, listed as Elinogrel K-Form C, potassium salt) was 1920 µg/mL and the solubility kinetic at 3 day ([1]; pH 8.8, aqueous buffer, RT, pH 8.8, Day 3) was 1790 µg/mL. The solubility kinetic at 4 day ([1]; pH 8.8, aqueous buffer, RT, pH 8.8, Day 4) was 2150 µg/mL, the solubility kinetic at 5 day ([1]; pH 8.8, aqueous buffer, RT) was 1450 µg/mL and the “solubility in 20% sodium sulfobutyl ether β-cyclodextrin relative to that in water” value ([3]; 20% sodium sulfobutyl ether β-cyclodextrin vs water) was “approximately 4 fold”. For the same compound, the Elinogrel potassium conc. ([3]; 20% sodium sulfobutyl ether β-cyclodextrin, 12 d, no pH adjustment (pH~7), potassium salt) was 11.5 mg/mL.
Compound `CNc1cc2[nH]c(=O)n(-c3ccc(NC(=O)NS(=O)(=O)c4ccc(Cl)s4)cc3)c(=O)c2cc1F` [Elinogrel sodium hydrate] has a solubility (physchem; 4 °C, water) of 13000 µg/mL, a solubility (physchem; pH 9.2, water) of 23000 µg/mL and a solubility (physchem; pH 9.3, aqueous buffer) of 16000 µg/mL. The “S (solubility)” value [4] was 17000 µg/mL.
For `CNc1cc2[nH]c(=O)n(-c3ccc(NC(=O)NS(=O)(=O)c4ccc(Cl)s4)cc3)c(=O)c2cc1F` [Elinogrel, [4-(6-Fluoro-7-methylamino-2,4-dioxo-1,4-dihydro-2H-quinazolin-3-yl)-phenyl]-5-chloro-thiophen-2-yl-sulfonylurea], the tolerability of injection ([5]; K salt at 4.0 mg/mL in 50 mM glycine, pH 9.38, intravenous) was “well tolerated”, the tolerability of injection ([5]; Na salt at 16.7 mg/mL in 10 mM glycine, pH 9.33, intravenous) was “well tolerated” and the solubility [6] was under 100 µg/mL. The solubility thermodynamic at 3 days ([7]; aqueous buffer, pH 3.00) was 0.057 µg/mL (≈ 0.109 µM), the solubility thermodynamic at 3 days ([7]; aqueous buffer, pH 8.11) was 418 µg/mL (≈ 799 µM) and the solubility thermodynamic at 3 days ([7]; pH 1.1, simulated gastric fluid, pH 1.10) was 0.03 µg/mL (≈ 0.0573 µM). The solubility thermodynamic at 3 days ([7]; pH adjusted with NaOH or HCl, aqueous buffer, pH 5.97) was 0.544 µg/mL (≈ 1.04 µM), the solubility thermodynamic at 3 days ([7]; pH adjusted with NaOH or HCl, aqueous buffer, pH 6.61) was 2.17 µg/mL (≈ 4.14 µM) and the solubility thermodynamic at 3 days ([7]; pH adjusted with NaOH or HCl, aqueous buffer, pH 7.22) was 46.6 µg/mL (≈ 88.9 µM). For the same compound, the solubility thermodynamic at 3 days ([7]; pH adjusted with NaOH or HCl, pH 4.2, aqueous buffer, pH 4.20) was 0.022 µg/mL (≈ 0.042 µM), the solubility thermodynamic at 3 days ([7]; simulated gastric fluid, pH 1.88) was 0.002 µg/mL (≈ 0.00382 µM) and the “Solubility (kinetic)” value ([1]; RT, pH 9, Day 5, listed as Elinogrel free acid-Form B) was 4050 µg/mL (≈ 7730 µM). It also gave a solubility kinetic at 1 day ([1]; pH 9, aqueous buffer, RT, pH 9, Day 1) of 3140 µg/mL (≈ 5990 µM), a solubility kinetic at 2 day ([1]; pH 9, aqueous buffer, RT, pH 9, Day 2) of 3230 µg/mL (≈ 6160 µM) and a solubility kinetic at 3 day ([1]; pH 9, aqueous buffer, RT, pH 9, Day 3) of 3330 µg/mL (≈ 6360 µM). The solubility kinetic at 4 day ([1]; pH 9, aqueous buffer, RT, pH 9, Day 4) was 2650 µg/mL (≈ 5060 µM), the logP [8] was “about 2.5” and the pKa [8] was about 3.3. The logD ([8]; pH 7.4) was “about −1.6”.
